In publication PMC12775124, “CUL4A-DDB1-DCAF10 is an N-recognin for N-terminally acetylated Src kinases” (Nature Communications, 2026):
Where a SMILES comes first, the peptide text is derived from it. The star is where a group is joined. Cbz = O=C(OCc1ccccc1)*

Assays:
[1] = system: Lyn; test: Lyn turnover, cycloheximide / MG132; type: cell-based, human; settings: HeLa, n = 3
Experimental: (§1) To assess this, HeLa cells were transfected with NMT1/2 siRNA or left untreated and analysed after addition of cycloheximide (8 h) to block protein synthesis or MG132 (4 h) to inhibit proteasomal degradation.
(§2) 124 Supplementary Fig. 5. NMT1/2 knockdown leads to an increased turnover of SFKs
(§3) 125 and overexpression of DCAF10 reduces SFK levels after NMT1/2 knockdown. […]
(§4) 130 overexpression. Untreated: purple; with NMT1/2 RNAi: blue. Individual data points are
(§5) 131 indicated (n = 2 or 3 independent biological replicates). MG132 = proteasome inhibitor;
(§6) 132 CHX = cycloheximide translational inhibitor. d) HeLa cells were treated for 72 h with and
(§7) 133 without NMT1/2 siRNA and treated with cycloheximide or MG132 for the indicated
(§8) 134 periods of time. Representative WBs are shown. Filled circles indicate treatment; empty
(§9) 135 circles indicate no treatment. e-h) Fold-change analysis of protein expression levels under
(§10) 136 the indicated conditions. Left: fold change after 8 h cycloheximide treatment of (e) Lyn,
(§11) 137 (f) Fyn, (g) Src and (h) THOC7. […]
(§12) 413 knockdown, the transfection reagent Lipofectamine RNAiMAX (Invitrogen, Thermo
(§13) 414 Fisher Scientific, Waltham, MA, USA) was used at a final dilution of 1:333 (3 μL/mL of
(§14) 415 medium). Pools of siRNAs, including siNMT1, siNMT2, siDCAF10, siZYG11B, and
(§15) 416 siZER1, or combinations of different siRNAs, were reverse transfected at a concentration […]

[2] = system: Fyn; test: Fyn turnover, cycloheximide / MG132; type: cell-based, human; settings: HeLa, n = 3
Experimental: as §1, §2, §3, §4, §5, §6, §7, §8, §9, §10, §11
410 HeLa, DLD-1 and all thereof derived stable cell lines, and RPE-1 cells were grown in
412 serum (FBS). Cells were counted and diluted to 100,000 cells/mL. For siRNA
as §12, §13
415 medium). […]

[3] = system: THOC7; test: THOC7 turnover, cycloheximide / MG132; type: cell-based, human; settings: NMT1/2 KD, HeLa, n = 3, 'unaffected'
Experimental: as §1, §2, §3, §4, §5, §6, §7, §8, §9, §10, §11, §12, §13, §14, §15

[4] = system: Src; test: Src turnover, cycloheximide / MG132; type: cell-based, human; settings: HeLa, n = 3
Experimental: as §1, §2, §3, §4, §5, §6, §7, §8, §9, §10, §11, §12, §13, §14, §15

[5] = system: ZYG11B; test: Peptide pull-down with quantitative MS, HeLa lysate, ZYG11B; type: binding, human (HeLa); settings: Nt-Ac vs Nt-free peptides
Experimental: Biotinylated 10-mer Nt-peptides (Nt-free, Nt-acetylated, and, where indicated, Nt-myristoylated; sequences in Supplementary Table 1) were synthesized with a C-terminal Lys3 spacer and biotin, immobilized on magnetic streptavidin beads, and incubated with HeLa or mouse liver lysates. After standardized washes, bound proteins were on-bead reduced/alkylated, digested with LysC/trypsin, desalted, and analysed by LC-MS in DIA mode (Orbitrap Exploris 480) as described previously. Variants included endogenous Nt-sequences, swap and mutant (Ala-Ala-Ala or Nt-amino acids) peptides, and pairwise comparisons of conditions of interest. Full buffer compositions, bead loading, wash schemes, and MS parameters are provided in the Supplementary Methods.
203 Supplementary Methods
205 Peptide sequences are listed in Supplementary Table 1. Peptide pull-downs were
Briefly, magnetic streptavidin beads (DynabeadsTM
Beads were then washed three times with PBS. After
210 washing, 1 mg of HeLa lysates or 2 mg of liver lysates was taken, and lysis buffer (75
Lysates were incubated with streptavidin
HeLa pull-downs were washed twice with lysis buffer and twice
Liver pulldowns were washed twice with cold low salt buffer (50 mM
220 individually ventilated cages under a 12-h light/dark cycle and were provided with sterile
All procedures were performed
No animal procedures were performed specifically for this […]

[6] = system: Fyn; test: In vitro ubiquitination of immunoprecipitated Fyn; type: biochemical, human; settings: 250 nM E3 complex, n = 3
Description: (§16) Having established cellular regulation by DCAF10 under reduced N-myristoylation, we aimed to test whether CUL4A-DDB1-DCAF10 directly ubiquitinates SFKs. […] As we expect NMT1/2 depletion to cause a destabilization of SFKs, their equal or even greater ubiquitination in IPs from untreated cells relative to NMT1/2-depleted cells was unanticipated. We speculate that (i) Nt-acetylated SFKs may degrade rapidly, preventing their accumulation upon NMT1/2 depletion; (ii) an acetylated fraction of SFKs may exist under physiological conditions; (iii) DCAF10 might recognize additional surfaces.
(§17) Reactions contained E1, UBCH5B (E2), ubiquitin, Mg-ATP in ligation buffer and were incubated with bead-bound substrates, followed by washing and immunoblot detection of ubiquitinated species (anti-ubiquitin), with loading controls (anti-Lyn, -Fyn, -Src or -GFP) (n = 3 independent enzymatic assays). Complete reagent lists, complex preparation, substrate IP conditions, wash buffers, and gel/blot parameters are provided in the Supplementary Methods and Tables.
(§18) 357 (v/v) glycerol, 2 mM TCEP, supplemented with Protease Inhibitor Cocktail), and lysed
(§19) 358 by sonication. Lysates were cleared by centrifugation at 28,000 rpm for 45 min at 4 °C […]
(§20) 382 EDTA, and loaded on a gradient gel (4–15%). Ubiquitination of substrates was assessed
(§21) 383 by WB using an anti-ubiquitin antibody. Equal substrate loading was evaluated by anti- […]

[7] = system: Lyn; test: In vitro ubiquitination of immunoprecipitated Lyn; type: biochemical, human; settings: 250 nM E3 complex, 1 h 30°C, Ub normalized to bait, n = 3
Description: as §16, §17, §18, §19, §20, §21

[8] = system: Src; test: In vitro ubiquitination of immunoprecipitated Src; type: biochemical, human; settings: 250 nM E3 complex, n = 3
Description: as §16, §17, §18, §19, §20, §21

[9] = cycloheximide 100 µg/mL 8 h, NMT1/2 KD relative to cycloheximide-treated control
[10] = IP from NMT1/2-depleted HeLa cells

Molecule: C[C@@H]1C[C@@H]([C@H](O)CC2CC(=O)NC(=O)C2)C(=O)[C@@H](C)C1 [Cycloheximide]
- Lyn decrease [1, 9]: 2 fold
- Fyn decrease [2, 9]: 1.5 fold
- THOC7 decrease ([3]; cycloheximide 100 µg/mL 8 h): 1.1 fold
- Src decrease [4, 9]: 1.3 fold

Molecule: CC(C)C[C@@H](C=O)NC(=O)[C@H](CC(C)C)NC(=O)[C@H](CC(C)C)NC(=O)OCc1ccccc1 [MG132] (Cbz-Leu-Leu-Leu-aldehyde)
- Lyn increase ([1]; MG132 10 µM 4 h, NMT1/2 KD): 1.6 fold
- Fyn increase ([2]; MG132 10 µM 4 h, NMT1/2 KD): 1.6 fold
- THOC7 increase ([3]; MG132 10 µM 4 h): 1.1 fold
- Src increase ([4]; MG132 10 µM 4 h, NMT1/2 KD): 2 fold

Molecule: GAPATRRCVEKK [Nt-free TMEM97, Nt-peptide of TMEM97, Nt-free]
- ZYG11B binding (in words) [5]: ZYG11B binding only to the Nt-free peptide of TMEM97

Molecule: WT: catalytically active E3 ligase complex of full-length CUL4A, DDB1, DCAF10 and RBX1
- Fyn ubiquitination, ratio relative to RBX1^mut [6, 10]: 2.27 fold
- Fyn ubiquitination, ratio relative to RBX1^mut ([6]; IP from control HeLa cells): 2.73 fold
- Lyn ubiquitination, ratio relative to RBX1^mut [7, 10]: 2.18 fold
- Lyn ubiquitination, ratio relative to RBX1^mut ([7]; IP from control HeLa cells): 2.58 fold
- Src ubiquitination, ratio relative to RBX1^mut [8, 10]: 2.03 fold
- Src ubiquitination, ratio relative to RBX1^mut ([8]; IP from control HeLa cells): 3.0 fold
